The test system of series [1] is cytoplasmic calcium levels in U251 cells. The experiment in a line: Cytoplasmic calcium imaging (Fura-2/AM). The format is cell-based, human. The note with it: 100 μmol/L of each drug, Fura-2/AM loaded cells. How it is done: (A) U251 cells were treated with DMC or various coxibs and NSAIDs, and changes in intracellular calcium levels were recorded as described in Materials & Methods. […] Arrows indicate timepoint of drug addition. […] Essentially similar results were also obtained with the LN229 cell line.
The cells were loaded by incubating them with […] Fura-2/AM (Invitrogen) for 30 min at room temperature in external solution containing 138 mmol/L NaCl, 5.6 mmol/L KCl, 1.2 mmol/L MgCl2, 2.6 mmol/L CaCl2, 10 mmol/L HEPES, and 4 mmol/L glucose (pH 7.4). After loading, the cells were rinsed and transferred to the imaging setup. The cells were treated with individual drugs for 10 s, whereas fluorescence was elicited with the excitation wavelength alternating between 350 and 380 nm, using a Polychromator V (TILL Photonics GmbH, Grafelfing, Germany) to provide illumination via a Zeiss Axiovert 100 microscope with a Zeiss Fluar 40 oil objective (Carl Zeiss, Jena, Germany). Images were captured using a Cascade 512B CCD camera (Photometrics, Tucson, Ariz.) controlled with MetaFluor software (Molecular Devices, Sunnyvale, Calif.) at 0.5 Hz acquisition frequency. Ratios of the images obtained at 350 and 380 nm excitation were used to show changes in the cytoplasmic calcium concentration, according to the principles developed by Grynkiewicz et al. (31).

The subject of series [2] is U251 glioblastoma cells. Description: MTT assay, U251. Format: cell-based, human. Particulars: U251, 48 hours, concentrations of up to 100 μmol/L. How it is done:
U251 glioblastoma cells were treated with different drugs, and various parameters of cell growth and cell death were comparatively analyzed. As controls, cells remained either non-treated (Co) or were treated with the solvent DMSO alone. (FIG. 8A) Cells were treated with 30 or 50 μM DMC for 48 hours and the effects on cell growth/survival and on cell death were determined by various assays. […] Below the three panels, the expression levels of the ER stress indicators CHOP, GRP78, and caspase 4 at the end of the 48 hour drug treatment is shown, as determined by Western blot analysis with specific antibodies (actin served as a loading control. (FIG. 8B) Cells were treated with various concentrations of different drugs for 48 hours, as indicated, and cell death was measured with the cell death ELISA kit. (FIG. 8C) Cells were treated with DMC or various coxibs and traditional NSAIDs for 48 hours, as indicated, and cell growth and survival was determined with the conventional MTT assay (control, non-treated cells were set at 100%). MTT assays were performed in 96-well plates with the use of 3.0-8.0×10^3 cells per well as described in detail elsewhere (34). In parallel, the expression levels of CHOP and GRP78 protein were determined by Western blot analysis. […]
3-(4,5-Dimethylthiazol-2-yl)-2,5-diphenyltetrazolium bromide (MTT) assays were performed in 96-well plates with the use of 3.0×10^3 to 8.0×10^3 cells per well as described in detail elsewhere (19).

The subject of series [3] is U251 glioblastoma cells. The experiment in a line: Cell death ELISA, U251. Format: cell-based, human. The note with it: U251, 48 hours, concentrations of up to 100 μmol/L. How it is done: U251 glioblastoma cells were treated with different drugs, and various parameters of cell growth and cell death were comparatively analyzed. As controls, cells remained either non-treated (Co) or were treated with the solvent DMSO alone. (FIG. 8A) Cells were treated with 30 or 50 μM DMC for 48 hours and the effects on cell growth/survival and on cell death were determined by various assays. […] Below the three panels, the expression levels of the ER stress indicators CHOP, GRP78, and caspase 4 at the end of the 48 hour drug treatment is shown, as determined by Western blot analysis with specific antibodies (actin served as a loading control. (FIG. 8B) Cells were treated with various concentrations of different drugs for 48 hours, as indicated, and cell death was measured with the cell death ELISA kit. (FIG. 8C) Cells were treated with DMC or various coxibs and traditional NSAIDs for 48 hours, as indicated, and cell growth and survival was determined with the conventional MTT assay (control, non-treated cells were set at 100%). MTT assays were performed in 96-well plates with the use of 3.0-8.0×10^3 cells per well as described in detail elsewhere (34). In parallel, the expression levels of CHOP and GRP78 protein were determined by Western blot analysis.
Apoptosis in cell cultures in vitro was determined by using the Cell Death Detection ELISA kit (Roche Diagnostics, Indianapolis, Ind.) according to the manufacturer's instructions. This immunoassay specifically detects the histone region (H1, H2A, H2B, H3, and H4) of mononucleosomes and oligonucleosomes that are released during apoptosis. Ninety-six-well plates were seeded with 1,000 cells per well and read at 405 nm in a Microplate Autoreader (Model EL 311 SX; Bio-Tek Instruments, Inc., Winooski, Vt.).
Background: In an ELISA, binding on a coated surface is turned into a signal by an enzyme label.

The test system of series [4] is CHOP, GRP78, caspase 4 in U251 glioblastoma cells. Description: Western blot of ER stress indicators in U251 cells. Format: cell-based, human. Particulars: for CHOP expression, time kinetics: U251, 50 μmol/L, 4 h up to 24 h; for increase in CHOP or GRP78 protein, concentration dependence: U251, 15 hours, concentrations up to 75 or 100 μmol/L. How it is done:
U251 glioblastoma cells were cultured in the presence of 1 μM thapsigargin (Tg) or 60 μM DMC for various times, as indicated. Total cell lysates were prepared and analyzed by Western blot with specific antibodies to the ER stress proteins GRP78, CHOP, and caspase 4 (Casp 4). Actin was used as a loading control.
Shown are (A) time kinetics at 50 μM of each drug, and (B) concentration dependence after 15 hours of incubation.
Shown are (FIG. 7A) time kinetics at 50 μM of each drug, and (FIG. 7B), concentration dependence after 15 hours of incubation.
U251 glioblastoma cells were cultured for 24 hours in the presence of increasing concentrations of (A) bortezomib (BZM) or (B) DMC. Total cell lysates were analyzed by Western blot with specific antibodies to ubiquitin, GRP78, CHOP, and caspase 4. Actin was used as a loading control.
Total cell lysates were prepared by lysis of cells with radioimmunoprecipitation assay buffer (28), and protein concentrations were determined using the bicinchoninic acid protein assay reagent (Pierce, Rockford, Ill.). For Western blot analysis, 50 Ag of each sample were processed as described (29). The primary antibodies were purchased from Cell Signaling Technologies (Beverly, Mass.), Cayman Chemical (Ann Arbor, Mich.), or Santa Cruz Biotechnology, Inc. (Santa Cruz, Calif.) and used according to the manufacturer's recommendations. The secondary antibodies were coupled to horseradish peroxidase and detected by chemiluminescence using the SuperSignal West substrate from Pierce. All immunoblots were repeated at least once to confirm the results.
Total cell lysates were prepared and analyzed by Western blot analysis as described earlier (19). Immunohistochemical analysis of protein expression in tumor tissues was performed with the use of the Vectastain avidin-biotin complex method kit (Vector Laboratories) as described previously (32). The primary antibodies were purchased from Cell Signaling Technology or Santa Cruz Biotechnology, Inc. and used according to the manufacturers' recommendations. All immunoblots and stainings were repeated at least once to confirm the results.
For orientation: Immunoblotting shows a protein as a band on a membrane.

A further series has as its system human glioblastoma cells. The experiment in a line: Induction of apoptosis in human glioblastoma cells (FIG. 19). Format: cell-based. The text has this: In the figure, DMC stands for 4-[5-(2,5-dimethylphenyl)-3-(trifluoromethyl)-1H-pyrazol-1-yl]benzenesulfonamide; DBrC stands for 4-[5-(2,5-dibromophenyl)-3-(trifluoromethyl)-1H-pyrazol-1-yl]benzenesulfonamide; and DTF3C stands for 4-[5-(2,5-ditrifluoromethylphenyl)-3-(trifluoromethyl)-1H-pyrazol-1-yl]benzenesulfonamide.

The subject of series [5] is U87 glioblastoma tumors. The experiment in a line: Tumor growth in xenograft nude mouse model. Format: in vivo, nude mice. The note with it: daily chow for DMC, 40 mg/kg for rofecoxib, n=5. As for the experimental part:
Once palpable tumors had formed, the animals received daily chow supplemented with DMC, rofecoxib, or no drug. Tumor size was determined every three days. Shown is the average (mean±SD) tumor volume in each group (n=5). Asterisks (**): p<0.01 between control and DMC-treated animals on day 42.

Series [6] relates to U87 glioblastoma tumors. Description: TUNEL assay of xenograft tumor tissue. The note with it: U87 xenograft, short-term drug treatment.
Series [7] concerns CHOP protein in U87 glioblastoma tumor tissue. The experiment in a line: Immunohistochemical staining for CHOP in xenograft tumor tissue. Format: in vivo, nude mice. The note with it: U87 xenograft. An excerpt:
In all cases, representative sections are shown.
Immunohistochemical analysis of protein expression in tumor tissues was done with the use of the Vectastain avidin-biotin complex method kit (Vector Laboratories, Burlingame, Calif.) according to the manufacturer's instructions. This procedure uses biotinylated secondary antibodies and a preformed avidin: biotinylated enzyme complex that has been termed the avidin-biotin complex method technique. As the primary antibody, we used anti-CHOP antibody (Santa Cruz Biotechnology) diluted 1:100 in 2% normal goat blocking serum.

Series [8] deals with Tumor-associated Brain Endothelial Cells (TuBEC). The experiment in a line: Trypan blue exclusion, tumor-associated brain endothelial cells. Format: cell-based. As for the experimental part:
After drug treatment the cells were incubated for another 12 days in the absence of drug, in order to determine their long-term survival; at that time cytotoxicity was evaluated using the trypan blue exclusion technique. Results are presented as number of viable cells per group.
Tumor-associated Brain Endothelial Cells (TuBEC) were treated with TMZ (300 uM) and 20 uM DMC for 48 hours. The drugs were removed and cells were incubated for another 12 days; at that time cytotoxicity was evaluated using the trypan blue exclusion technique. Results are presented as number of viable cells per group.

“Also recorded” adds a separate entry of the source.

With `COc1ccc2c(c1)c(CC(=O)O)c(C)n2C(=O)c1ccc(Cl)cc1` [indomethacin], the “elevation of cytoplasmic calcium levels” value in [1] is recorded as “none”. For the same compound, the “detectable effect on cell growth and survival (MTT)” value (“detectable effect” below) with U251 glioblastoma cells [2] is listed as “none”. Further, the “induction of cell death/apoptosis (cell death ELISA)” value (shortened to “induction of cell death/apoptosis”) with U251 glioblastoma cells [3] is “did not induce apoptosis”.

Regarding `CC(C(=O)O)c1ccc(-c2ccccc2)c(F)c1` (stereo not shown) [flurbiprofen], in series [1], the “elevation of cytoplasmic calcium levels” value was “none”. Also, the “detectable effect” value in the series with U251 glioblastoma cells [2] was “none”. Also, the “induction of cell death/apoptosis” value with U251 glioblastoma cells [3] is reported as “did not induce apoptosis”.

For `C/C=C(/C)C(=O)O[C@H]1C(C)=C2[C@H]([C@@H]1OC(=O)CCCCCCC)[C@@](C)(OC(C)=O)C[C@H](OC(=O)CCC)[C@@]1(O)[C@H]2OC(=O)[C@@]1(C)O` [thapsigargin], the “time at which activation (cleavage) of caspase-4 was first noted” value in series [4] (U251, 1 μM thapsigargin or 60 μM DMC) is recorded as approximately 24 h. Also, the “CHOP and GRP78 expression levels” value in [4] (U251, 1 μM thapsigargin or 60 μM DMC, prominent increase at 6 h and thereafter) was “substantially elevated”.

Regarding `CC1=C(CC(=O)O)c2cc(F)ccc2/C1=C\c1ccc([S+](C)[O-])cc1` (stereo not shown) [sulindac], in series [1], the “elevation of cytoplasmic calcium levels” value was “none”. For the same compound, the “detectable effect” value in the series with U251 glioblastoma cells [2] is “none”. Further, in the series with U251 glioblastoma cells [3], the “induction of cell death/apoptosis” value is listed as “did not induce apoptosis”.

Consider `NS(=O)(=O)c1ccc(-n2nc(C(F)(F)F)cc2-c2cc(Br)ccc2Br)cc1` [DBrC, 4-[5-(2,5-dibromophenyl)-3-(trifluoromethyl)-1H-pyrazol-1-yl]benzenesulfonamide], for which the “relative ability to induce apoptosis / cell killing effect compared to DMC” value in the series on human glioblastoma cells is recorded as “surprisingly potent cell killing effect”.

Consider `CS(=O)(=O)c1ccc(C2=C(c3ccccc3)C(=O)OC2)cc1` [rofecoxib, 4-(4′-methylsulfonylphenyl)-3-phenyl-2-(5H)-furanone], for which the “tumor growth on longer-term therapy” value with U87 glioblastoma tumors [5] was “not”. Besides, in series [1], the “elevation of cytoplasmic calcium levels” value is listed as “none”. Moreover, in series [4], the “CHOP expression, time kinetics” value is listed as “neither rofecoxib nor valdecoxib at the same concentration resulted in any detectable CHOP expression” and the “increase in CHOP or GRP78 protein, concentration dependence” value is “neither rofecoxib nor valdecoxib was able to stimulate any detectable increase”. For the same compound, the “apoptosis in the tumor tissue” value with U87 glioblastoma tumors [6] was “did not display elevated levels of apoptosis”. The “CHOP staining of tumor tissues” value in series [7] (30-180 mg/kg per day for 50 h, DMC and celecoxib already at lowest dosages) is “consistently negative”. Moreover, the “CHOP protein expression in tumor tissue” value in series [7] (animals fed drug for 50 h) is recorded as “no such increase was observed”. The “detectable effect” value in the series with U251 glioblastoma cells [2] was “none”. In the series on U251 glioblastoma cells [3], the “induction of cell death/apoptosis” value is “did not induce apoptosis”.

As for `Cn1nnc2c(C(N)=O)ncn2c1=O` [Temozolomide], the “cytotoxicity on tumor-associated brain endothelial cells” value in series [8] was “little cytotoxicity”.

Turning to `Cc1onc(-c2ccccc2)c1-c1ccc(S(N)(=O)=O)cc1` [valdecoxib, 4-[5-Methyl-3-phenylisoxazol-4-yl]-benzenesulfonamide], in [1], the “elevation of cytoplasmic calcium levels” value is recorded as “none”. Further, in [4], the “CHOP expression, time kinetics” value is “neither rofecoxib nor valdecoxib at the same concentration resulted in any detectable CHOP expression” and the “increase in CHOP or GRP78 protein, concentration dependence” value is “neither rofecoxib nor valdecoxib was able to stimulate any detectable increase”. Also, the “detectable effect” value with U251 glioblastoma cells [2] was “none”. For the same compound, in the series with U251 glioblastoma cells [3], the “induction of cell death/apoptosis” value is on record as “did not induce apoptosis”.

On to `NS(=O)(=O)c1ccc(-n2nc(C(F)(F)F)cc2-c2cc(C(F)(F)F)ccc2C(F)(F)F)cc1` [DTF3C, 4-[5-(2,5-ditrifluoromethylphenyl)-3-(trifluoromethyl)-1H-pyrazol-1-yl]benzenesulfonamide], for which the “relative ability to induce apoptosis / cell killing effect compared to DMC” value in the series with human glioblastoma cells is “surprisingly potent cell killing effect; also recorded: most potent compound”.
